The text below walks through data of ChEMBL document CHEMBL3091414, “Validation of Reactivity Descriptors to Assess the Aromatic Stacking within the Tyrosine Gate of FimH” (ACS Med Chem Lett, 2013).

Assay [1] is described as follows: Binding affinity to Escherichia coli J96 FimH lectin domain (Phe1 to Thr158) expressed in Escherichia coli C43 (DE3) by surface plasmon resonance analysis.
Assay [2] in a line: Binding affinity to Escherichia coli J96 FimH lectin domain (Phe1 to Thr158) expressed in Escherichia coli C43 (DE3) by isothermal titration calorimetry assay.

Each structure is given as a SMILES string.

With `CCCCCCCO[C@H]1O[C@H](CO)[C@@H](O)[C@H](O)[C@@H]1O`, the Kd in assay [1] is 3.1 nM; in assay [2] it was 7.3 nM.
As for `COCC#Cc1ccc(O[C@H]2O[C@H](CO)[C@@H](O)[C@H](O)[C@@H]2O)cc1`, the affinity in assay [2], expressed as Kd, was 59.5 nM.
`OCC#Cc1ccc(O[C@H]2O[C@H](CO)[C@@H](O)[C@H](O)[C@@H]2O)cc1`: the Kd in assay [1] was found to be 36.9 nM.
Still for that read-out and setting: to `CCCSCCCO[C@H]1O[C@H](CO)[C@@H](O)[C@H](O)[C@@H]1O` belongs 14 nM; to `O=C(C[C@H]1O[C@H](CO)[C@@H](O)[C@H](O)[C@@H]1O)Nc1nc2ccccc2s1`, 59 nM; to `O=C(C[C@H]1O[C@H](CO)[C@@H](O)[C@H](O)[C@@H]1O)Nc1nc2ccccc2[nH]1`, 4200 nM.
Same read-out and setting: the same measure for `O=C(C[C@H]1O[C@H](CO)[C@@H](O)[C@H](O)[C@@H]1O)Nc1ccccc1`: 372 nM; for `O=C(C[C@H]1O[C@H](CO)[C@@H](O)[C@H](O)[C@@H]1O)Nc1ccc(O)cc1`: 328 nM; for `O=C(C[C@H]1O[C@H](CO)[C@@H](O)[C@H](O)[C@@H]1O)Nc1ccc(Cl)cc1`: 113 nM.
The same measure, in the same setting: the same measure for `COc1ccc(C#CCO[C@H]2O[C@H](CO)[C@@H](O)[C@H](O)[C@@H]2O)cc1`: 53 nM.
Consider `CCCCO[C@H]1O[C@H](CO)[C@@H](O)[C@H](O)[C@@H]1O` [BUTYLALPHAMAN], for which the Kd in assay [1] came to 151 nM; in assay [2], 154 nM.
